According to US5661182A, “Method for lowering oxygen affinity of hemoglobin in redcell suspensions, in whole blood and in vivo” (Virginia Commonwealth University, priority 1995, dated 1997):
“Also recorded” adds a separate entry of the source.

Experiments:
[1] = target: hemoglobin in red cell suspensions (Homo sapiens, UniProt P68871+P69905); assay: Allosteric effector activity in the presence of serum albumin in buffered red cell suspensions (FIG. 3); type: cell-based; conditions: for effector activity in the presence of serum albumin: FIG. 3, effector 0.5 mM (L3,4,5 0.25 mM)
Excerpt: L3,5 and L3,4,5 were provided by Dr. Lalezari (Montefiore Hospital, New York); RSR-4 [2-[4-[[(3,5-dichloroanilino)carbonyl]methyl]phenoxy]-2-methylpropionic acid]and RSR13 [2-4-[[(3,5- dimethylanilino)carbonyl]methyl]phenoxy]-2-methylpropionic acid] have been synthesized following the procedure described in Randad et al. (J. Med. Chem. 34,752 (1991)). Human serum albumin (HSA), bovine serum albumin (BSA) and 4,4'diisothiocyanatostilbene-2,2'-disulfonate (DIDS) were purchased from Sigma (St. Louis, Mo.). Due to their low solubility in aqueous buffer, 10 mM stock solutions of the compounds were prepared in a slight exccess of sodium bicarbonate and back-titrated to pH 7.4. For example, RSR-4 or RSR-13 was dissolved at 60° C. in a 140 mM NaCl and 50 mM bis-Tris buffer at room temperature upon progressive addition of NaHCO3 to obtain 10 mM stock solutions. The pH was carefully adjusted to 7.4 after complete solubilization and before use of the solutions. Fresh solutions were prepared each week. Stock solutions of DIDS (1 mM) were prepared, in the dark, on the day of the experiments in a pH 7.4 buffer. Human serum albumin (defatted HSA) and bovine serum albumin (BSA) were prepared freshly as 1 mM stock solutions, pH 7.4. Equilibrium Measurements. The allosteric modulation of the effectors on freshly prepared solutions of hemoglobin or red cell suspensions was measured by the change in p50, the partial pressure of oxygen for half-saturation. Oxygen equilibrium curves (OEC) were carried out with the Hemox analyzer (TCS, Southampton, Pa.) under the following conditions: pH 7.4, 140 mM NaCl and 50 mM bis-Tris buffer at 37° C. In all experiments, the concentration of hemoglobin in the red cell suspensions was 20-25 μM hemoglobin tetramer (Hb4) as measured by Drabkin's method (cyanomethemoglobin) at the end of each recording. The final concentration of the allosteric effector in the cuvette was 0.5 mM, resulting in an effector/Hb4 ratio of 20 in the absence of albumin. […]

stored human RBCs = stored human RBCs (Homo sapiens, UniProt P68871+P69905); assay: Outdated blood studies: oxygen dissociation curves of stored red blood cells; type: cell-based; conditions: for p50 / ΔY [Y(90%)-Y(40%)]: 40-day-old stored human RBCs
Experimental: Outdated Blood Studies. For the outdated blood studies, 40-day-old packed red cells (80% hematocrit) were obtained from the blood bank at the Medical College of Virginia, Richmond, Va. The cells had been stored in Adsol formulation at 1°-4° C., pH 6.84. Fresh red cells obtained from volunteers were used for the control studies in Table III. The fresh red blood cells were centrifuged and washed with saline, pH 6.8. The oxygen dissociation curves were recorded on an Aminco Hem-O-Scan (Travenol Laboratories).
Outdated Blood Studies. The capability of RSR-13 to restore the oxygen affinity of stored blood was investigated. The procedure involved measurement of the oxygen equilibrium curves on red cell suspensions, which were stored in Adsol formulations at 4° C., in either the absence (controls) or presence of RSR-13. Table 3 presents the p50 (mmHg) and ΔY (%) [Y(90%)-Y(40%)] for outdated red blood cell suspensions (forty days) in the presence or absence of RSR-13.

hemoglobin in rat blood = assay: In vivo effect in conscious rats: oxygen dissociation curve of blood after 2-h infusion; conditions: for sign of distress: rats, during infusion
Experimental: In Vivo Studies. The in vivo effect of RSR-4 and RSR-13 was assessed in conscious rats that received (through a chronic femoral vein catheter) an initial 85.7±3.7 mg/kg dose of RSR-4 or 84.0±4.0 mg/kg dose of RSR-13, followed by 85.7±3.7mg/(kg h) RSR-4 or 84.0±4.0 mg/(kg h) RSR13, respectively, for 2 h. The oxygen dissociation curve was measured before infusion with a Hemox analyzer and, after the 2-h infusion, was manually measured with a tonometer and visible spectroscopy to avoid a dilution step (used with the Hemox analyzer) that would disrupt the equilibrium between the drug and erythrocytes. Tonometry was performed at a constant/pCO2 of 40 mmHg at 37° C. The pH of the blood was 7.443±0.012 (n=5) for the RSR-13 experiment and 7.412±0.098 (n=7) for the RSR-4 experiment. Control rats received an infusion of buffer solution with NaHCO3. A slight molar excess of NaHCO3 was used to better solubilize RSR-4.

rat erythrocytes = assay: Hemolysis of rat erythrocytes
bovine hemoglobin = bovine hemoglobin (Bos taurus, UniProt P01966+P02070); assay: Oxygen equilibrium of isolated bovine Hb solutions (p50); type: biochemical; conditions: for p50 shift at increasing chloride concentration / Hb bovine(p50): bovine Hb solution; for p50 shift at increasing chloride concentration: 0.5 mM, chloride 0-400 mM; for Hb bovine(p50): effector 0.5 mM, pH 7.2, 100 mM NaCl, 25 °C
Excerpt: L3,5 and L3,4,5 were provided by Dr. Lalezari (Montefiore Hospital, New York); RSR-4 [2-[4-[[(3,5-dichloroanilino)carbonyl]methyl]phenoxy]-2-methylpropionic acid]and RSR13 [2-4-[[(3,5- dimethylanilino)carbonyl]methyl]phenoxy]-2-methylpropionic acid] have been synthesized following the procedure described in Randad et al. (J. Med. Chem. 34,752 (1991)). Human serum albumin (HSA), bovine serum albumin (BSA) and 4,4'diisothiocyanatostilbene-2,2'-disulfonate (DIDS) were purchased from Sigma (St. Louis, Mo.). Due to their low solubility in aqueous buffer, 10 mM stock solutions of the compounds were prepared in a slight exccess of sodium bicarbonate and back-titrated to pH 7.4. For example, RSR-4 or RSR-13 was dissolved at 60° C. in a 140 mM NaCl and 50 mM bis-Tris buffer at room temperature upon progressive addition of NaHCO3 to obtain 10 mM stock solutions. The pH was carefully adjusted to 7.4 after complete solubilization and before use of the solutions. Fresh solutions were prepared each week. Stock solutions of DIDS (1 mM) were prepared, in the dark, on the day of the experiments in a pH 7.4 buffer. Human serum albumin (defatted HSA) and bovine serum albumin (BSA) were prepared freshly as 1 mM stock solutions, pH 7.4. Equilibrium Measurements. The allosteric modulation of the effectors on freshly prepared solutions of hemoglobin or red cell suspensions was measured by the change in p50, the partial pressure of oxygen for half-saturation. Oxygen equilibrium curves (OEC) were carried out with the Hemox analyzer (TCS, Southampton, Pa.) under the following conditions: pH 7.4, 140 mM NaCl and 50 mM bis-Tris buffer at 37° C. In all experiments, the concentration of hemoglobin in the red cell suspensions was 20-25 μM hemoglobin tetramer (Hb4) as measured by Drabkin's method (cyanomethemoglobin) at the end of each recording. The final concentration of the allosteric effector in the cuvette was 0.5 mM, resulting in an effector/Hb4 ratio of 20 in the absence of albumin. OEC were also made in the same buffer containing 12.5, 25, 50, and 100 μM HSA (for human red cell suspensions) or BSA (for bovine cell suspensions). The serum albumin experiments were carried out with traces of an antifoaming agent. This agent has no deleterious effect on the red cell suspensions. The molar ratio of albumin to tetrameric hemoglobin was varied from 0.5 (at 12.5 μM HSA) to 4 (at 100 μM HSA); in whole blood this ratio is approximately 0.3 (0.7 mM albumin plus plasma proteins/2.25 mM Hb4). Therefore, the concentration of albumin used in the present studies was always larger relative to tetrameric hemoglobin than that found in whole blood.
Bovine Red Cell Studies. Table 2 presents data for oxygen binding measurements for fresh bovine red blood cells and isolated Hb solutions on addition of the effectors L3,5, RSR-4, and RSR-13. The experimental conditions used were the same as described in conjunction with Table 1 for human red blood cells. The oxygen equilibrium curves for Hb solutions were made at pH 7.2, 100 mM NaCl and 50 mM bis-Tris buffer at 25° C. Catalase (20 μg/mL) and 50 μM EDTA were added to oppose oxidation of the hemes. The concentration of the effectors was 0.5 mM in all conditions. In Table 2, BSA is bovine serum albumin and P50 (mmHg) is the pO2 for 50% saturation.

purified Hb Yakima = assay: Effect on purified Hb Yakima; type: biochemical, human
bovine red cells = assay: Hemolysis of bovine red cells in vitro; type: cell-based

Sequence of stored human RBCs (P69905 whole entry): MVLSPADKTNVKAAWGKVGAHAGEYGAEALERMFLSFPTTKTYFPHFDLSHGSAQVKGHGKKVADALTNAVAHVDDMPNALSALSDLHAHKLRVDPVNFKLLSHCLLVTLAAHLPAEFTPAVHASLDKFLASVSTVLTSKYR
Sequence of stored human RBCs (P68871 whole entry): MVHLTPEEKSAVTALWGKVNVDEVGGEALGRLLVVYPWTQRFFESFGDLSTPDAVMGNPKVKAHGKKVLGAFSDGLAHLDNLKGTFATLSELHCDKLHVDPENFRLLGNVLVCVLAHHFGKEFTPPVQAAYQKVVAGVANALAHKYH
Sequence of hemoglobin in red cell suspensions (P69905 whole entry): as the sequence (P69905 whole entry) above
Sequence of hemoglobin in red cell suspensions (P68871 whole entry): as the sequence (P68871 whole entry) above
Sequence of bovine hemoglobin (P01966 whole entry): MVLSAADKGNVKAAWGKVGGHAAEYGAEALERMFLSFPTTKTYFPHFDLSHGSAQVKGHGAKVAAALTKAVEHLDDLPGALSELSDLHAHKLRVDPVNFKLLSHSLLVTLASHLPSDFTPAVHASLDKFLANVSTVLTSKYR
Sequence of bovine hemoglobin (P02070 whole entry): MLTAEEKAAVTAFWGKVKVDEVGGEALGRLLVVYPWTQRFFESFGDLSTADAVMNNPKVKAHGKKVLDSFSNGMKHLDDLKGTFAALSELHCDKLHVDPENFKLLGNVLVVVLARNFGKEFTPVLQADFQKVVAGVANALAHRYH

| allosteric effector activity ([1]; 0.5 mM effector, in the presence of 50 μM albumin) | pH of RBC solution versus untreated samples (stored human RBCs; 4 mM) | p50 (stored human RBCs; 1 mM) [mm Hg] | ΔY [Y(90%)-Y(40%)] (stored human RBCs; 1 mM) [%] | p50 (stored human RBCs; 2 mM) [mm Hg] | ΔY [Y(90%)-Y(40%)] (stored human RBCs; 2 mM) [%] | sign of distress (hemoglobin in rat blood) | potency in Hb solution (bovine hemoglobin; Hb solution studies, Table 2) | p50 shift at increasing chloride concentration (bovine hemoglobin) | Hb bovine(p50) (bovine hemoglobin) [mmHg] | SMILES | effector activity in the presence of serum albumin [1] | restoration / preservation of oxygen transport capabilities (stored human RBCs; 40-day-old RBC, 1 mM, or added prior to measurements or during storage) | hemolysis (stored human RBCs; stored human red cells, end of experiments) | Hill coefficient (hemoglobin in rat blood; rats (n=5), 84 mg/kg then 84 mg/(kg h) for 2 h, initial 2.62±0.10) | p50 (hemoglobin in rat blood; rats (n=5), 84 mg/kg then 84 mg/(kg h) for 2 h, initial 36.0±2.7) [mmHg] | hemolysis (rat erythrocytes) | state of purified Hb Yakima in the presence of effector (purified Hb Yakima) | hemolysis (bovine red cells) | p50 (hemoglobin in rat blood; rats (n=7), 85.7±3.7 mg/kg iv then 85.7±3.7 mg/(kg h) for 2 h, control value 36.4±1.6) [mmHg] | Hill coefficient (hemoglobin in rat blood; rats (n=7), 85.7±3.7 mg/kg iv then 85.7±3.7 mg/(kg h) for 2 h, initial 2.66±0.13) |
| --- | --- | --- | --- | --- | --- | --- | --- | --- | --- | --- | --- | --- | --- | --- | --- | --- | --- | --- | --- | --- |
| greater than 90% | higher than that of untreated samples | 39 | 37 | 45 | 40 | did not show any sign of distress |  |  |  | Cc1cc(C)cc(NC(=O)Cc2ccc(OC(C)(C)C(=O)O)cc2)c1 [RSR-13] | practically unaffected by serum albumin; also recorded: by far the least affected by serum albumin inhibition | able to restore, to near normal the oxygen transport capabilities (p50 and ΔY) of 40-day-old red blood cells; also recorded: preserved the oxygen delivery capabilities of red cell hemoglobin | no indication of hemolysis | 1.73±0.08 | 61.4±5.8 |  |  |  |  |  |
|  |  |  |  |  |  | did not show any sign of distress | significantly larger than that of L3,5 | identical at all chloride concentrations | 59 | CC(C)(Oc1ccc(CC(=O)Nc2cc(Cl)cc(Cl)c2)cc1)C(=O)O [RSR-4, 2-[4-[[(3,5-dichloroanilino)carbonyl]methyl]phenoxy]-2-methylpropionic acid] | greater than L3,5 and L3,4,5 at all serum albumin/Hb ratios studied |  |  |  |  | Significant hemolysis | remains locked in the high-affinity R-state | No hemolysis | 60.7±8.1 | 1.74±0.08 |
|  |  |  |  |  |  |  |  | identical at all chloride concentrations | 37 | CC(C)(Oc1ccc(NC(=O)Nc2cc(Cl)cc(Cl)c2)cc1)C(=O)O [L3,5, reference compound] |  |  |  |  |  |  | remains locked in the high-affinity R-state |  |  |  |
